Results as given in the supplement of paper PMC9701192.
Where a name gives a salt, the structure may show the parent alone. ± gives the uncertainty stated by the source.

How the values were obtained:
Test in all cases: mass response relative to vehicle control (EMD distance of treated vs reference mass distribution minus control baseline) (% of mean reference cell mass); higher = larger drug-induced change in single-cell mass distribution (stronger response)
H929 = system: H929
Description: (§1)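 Cancer cell lines were treated in vitro with drugs at the listed doses (about 24 h; 0.25% DMSO vehicle). Single-cell buoyant mass was measured on suspended microchannel resonator instruments with CNN image curation, 2500 cells per condition. Mass response is the Earth Mover's Distance to vehicle-treated reference cells as % of mean reference mass.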

A549 = system: A549
Description: as §1

H2228 = system: H2228
Description: as §1

HT-29 = system: HT-29
Description: as §1

MV-4-11 = system: MV-4-11
Description: as §1

H1666 = system: H1666
Description: as §1

MDA-MB-361 = system: MDA-MB-361
Description: as §1

PA-TU-8902 = system: PA-TU-8902
Description: as §1

KMS-12-PE = system: KMS-12-PE
Description: as §1

Which mass response (H929; 0.05 µM) does the source give for `CCN1CCN(Cc2ccc(Nc3ncc(F)c(-c4cc(F)c5nc(C)n(C(C)C)c5c4)n3)nc2)CC1` [Abemaciclib] here?
Its mass response is 13.7 ± 3.8.

And the mass response (H929; 0.5 µM)?
The mass response was 10.7 ± 3.7.

And the mass response (H929; 5 µM)?
The mass response was 22.1 ± 2.2.

And the mass response (H929; 20 µM)?
The mass response was 29.6 ± 1.8.

How did the mass response (A549; 0.1 µM) turn out when `CCc1cc2c(cc1N1CCC(N3CCOCC3)CC1)C(C)(C)c1[nH]c3cc(C#N)ccc3c1C2=O` [Alectinib] was run?
Its mass response is 3.04.

And the mass response (A549; 0.5 µM)?
Its mass response is 0.678.

And the mass response (A549; 1 µM)?
Its mass response is 3.27.

And the mass response (A549; 10 µM)?
The mass response was 24.8.

For `CC(C)C[C@H](NC(=O)[C@H](Cc1ccccc1)NC(=O)c1cnccn1)B(O)O` [Bortezomib], which mass response (H929; 0.001 µM) is on record?
The mass response was -0.979 ± 1.1.

And the mass response (H929; 0.005 µM)?
Its mass response is 24.1 ± 2.9.

And the mass response (H929; 0.025 µM)?
Its mass response is 34.2 ± 4.2.

And the mass response (H929; 0.05 µM)?
Its mass response is 33.7 ± 4.1.

Which results are given for `COc1cc2nccc(Oc3ccc(NC(=O)C4(C(=O)Nc5ccc(F)cc5)CC4)cc3)c2cc1OC` [Cabozantinib]?
mass response (H2228; 0.01 µM): 0.815 ± 0.96; mass response (H2228; 0.1 µM): 1.67 ± 0.69; mass response (H2228; 1 µM): -1.71 ± 0.46; mass response (H2228; 10 µM): 15.5 ± 1

How did the mass response (HT-29; 0.01 µM) turn out when `CNC(=O)c1ccc(-c2cnc3ncc(Cc4ccc5ncccc5c4)n3n2)cc1F` [Capmatinib] was run?
The mass response was 1.15 ± 0.93.

And the mass response (HT-29; 0.1 µM)?
The mass response was 1.02 ± 2.5.

And the mass response (HT-29; 1 µM)?
The mass response was 3.42 ± 3.

What about the mass response (HT-29; 10 µM) of the same compound?
The mass response was 12.2 ± 4.3.

`Cc1cc(Nc2ncc(Cl)c(Nc3ccccc3S(=O)(=O)C(C)C)n2)c(OC(C)C)cc1C1CCNCC1` [Ceritinib] was tested. Which mass response (H2228; 0.01 µM) did it give?
Its mass response is 2.19 ± 0.97.

And the mass response (H2228; 0.1 µM)?
Its mass response is 25.7 ± 7.5.

And the mass response (H2228; 1 µM)?
The mass response was 27.4 ± 6.2.

What about the mass response (H2228; 10 µM) of the same compound?
Its mass response is 61 ± 1.

How did the mass response (A549; 0.01 µM) turn out when `C[C@@H](Oc1cc(-c2cnn(C3CCNCC3)c2)cnc1N)c1c(Cl)ccc(F)c1Cl` [Crizotinib] was run?
The mass response was -1.1 ± 0.55.

And the mass response (A549; 0.1 µM)?
The mass response was -1.44 ± 0.16.

And the mass response (A549; 1 µM)?
The mass response was 6.6 ± 1.6.

What about the mass response (A549; 10 µM) of the same compound?
Its mass response is 12.1 ± 0.61.

`Nc1ccn([C@@H]2O[C@H](CO)[C@@H](O)[C@@H]2O)c(=O)n1` [Cytarabine] was tested. Which mass response (MV-4-11; 0.001 µM) did it give?
The mass response was -1.03 ± 0.38.

And the mass response (MV-4-11; 0.01 µM)?
Its mass response is 2.01 ± 0.69.

What about the mass response (MV-4-11; 0.1 µM) of the same compound?
The mass response was 15 ± 1.3.

And the mass response (MV-4-11; 1 µM)?
The mass response was 22.9 ± 0.31.

How did the mass response (HT-29; 0.01 µM) turn out when `CC(C)(C)c1nc(-c2cccc(NS(=O)(=O)c3c(F)cccc3F)c2F)c(-c2ccnc(N)n2)s1` [Dabrafenib] was run?
The mass response was 10.7 ± 9.3.

What about the mass response (HT-29; 0.1 µM) of the same compound?
The mass response was 19.1 ± 5.2.

And the mass response (HT-29; 1 µM)?
Its mass response is 24.3 ± 3.3.

What about the mass response (HT-29; 10 µM) of the same compound?
Its mass response is 16.9 ± 6.3.

For `COC(=O)N[C@@H](C)CNc1nccc(-c2cn(C(C)C)nc2-c2cc(Cl)cc(NS(C)(=O)=O)c2F)n1` [Encorafenib], which mass response (H1666; 0.01 µM) is on record?
Its mass response is 1.22 ± 0.73.

And the mass response (H1666; 0.1 µM)?
Its mass response is -0.00481 ± 0.44.

What about the mass response (H1666; 1 µM) of the same compound?
The mass response was 11.9 ± 4.1.

What about the mass response (H1666; 10 µM) of the same compound?
The mass response was 20.6 ± 3.6.

Which results are given for `COc1cccc2c1C(=O)c1c(O)c3c(c(O)c1C2=O)C[C@@](O)(C(=O)CO)C[C@@H]3O[C@H]1C[C@H](N)[C@@H](O)[C@H](C)O1` [Epirubicin]?
mass response (MDA-MB-361; 0.15 µM): 10.2 ± 1.1; mass response (MDA-MB-361; 0.625 µM): 10.7 ± 0.92; mass response (MDA-MB-361; 2.5 µM): 8.33 ± 2.5; mass response (MDA-MB-361; 10 µM): 13.1 ± 3.1

What does the source list for `CO[C@H]1C[C@@H]2CC[C@@H](C)[C@@](O)(O2)C(=O)C(=O)N2CCCC[C@H]2C(=O)O[C@H]([C@H](C)C[C@@H]2CC[C@@H](OCCO)[C@H](OC)C2)CC(=O)[C@H](C)/C=C(\C)[C@@H](O)[C@@H](OC)C(=O)[C@H](C)C[C@H](C)/C=C/C=C/C=C/1C` [Everolimus]?
mass response (PA-TU-8902; 0.5 µM): 8.53 ± 1.9; mass response (PA-TU-8902; 5 µM): 9.89 ± 5.3; mass response (PA-TU-8902; 20 µM): 8.18 ± 4; mass response (PA-TU-8902; 50 µM): 16.6 ± 7

With `O=c1[nH]cc(F)c(=O)[nH]1` [Fluorouracil] as the compound, how does the mass response (PA-TU-8902; 25 µM) read?
The mass response was -2.58 ± 0.15.

What about the mass response (PA-TU-8902; 50 µM) of the same compound?
Its mass response is 1.92 ± 7.

And the mass response (PA-TU-8902; 0.0001 M)?
Its mass response is 8.61 ± 5.8.

And the mass response (PA-TU-8902; 0.00025 M)?
Its mass response is 30.2 ± 2.5.

What does the source list for `Nc1ccn([C@@H]2O[C@H](CO)[C@@H](O)C2(F)F)c(=O)n1` [Gemcitabine]?
mass response (PA-TU-8902; 0.002 µM): 11.2 ± 4.4; mass response (PA-TU-8902; 0.02 µM): 7.94 ± 0.91; mass response (PA-TU-8902; 0.2 µM): 5.91 ± 0.96; mass response (PA-TU-8902; 2 µM): 15.9 ± 3

How did the mass response (MDA-MB-361; 0.1 µM) turn out when `CS(=O)(=O)CCNCc1ccc(-c2ccc3ncnc(Nc4ccc(OCc5cccc(F)c5)c(Cl)c4)c3c2)o1` [Lapatinib] was run?
Its mass response is 0.147 ± 0.5.

And the mass response (MDA-MB-361; 1 µM)?
The mass response was 6.42 ± 1.7.

And the mass response (MDA-MB-361; 10 µM)?
The mass response was 19.6 ± 1.1.

And the mass response (MDA-MB-361; 0.0001 M)?
The mass response was 19.5 ± 2.4.

What does the source list for `O=C(c1cc(Cc2n[nH]c(=O)c3ccccc23)ccc1F)N1CCN(C(=O)C2CC2)CC1` [Olaparib]?
mass response (MDA-MB-361; 0.1 µM): 1.31 ± 3.8; mass response (MDA-MB-361; 1 µM): 1.01 ± 3.2; mass response (MDA-MB-361; 10 µM): 17.9 ± 9.6; mass response (MDA-MB-361; 0.0001 M): 25 ± 4

`O=C(O)C(=O)O.[NH-][C@@H]1CCCC[C@H]1[NH-].[Pt+2]` [Oxaliplatin] was tested. Which mass response (PA-TU-8902; 0.5 µM) did it give?
The mass response was 5.04 ± 2.9.

And the mass response (PA-TU-8902; 5 µM)?
Its mass response is 1.26 ± 5.

What about the mass response (PA-TU-8902; 25 µM) of the same compound?
Its mass response is 27.3 ± 9.2.

And the mass response (PA-TU-8902; 50 µM)?
The mass response was 45.7 ± 3.4.

With `Nc1nc2[nH]cc(CCc3ccc(C(=O)N[C@@H](CCC(=O)O)C(=O)O)cc3)c2c(=O)[nH]1` [Pemetrexed] as the compound, how does the mass response (MDA-MB-361; 0.5 µM) read?
Its mass response is 14.4 ± 3.6.

And the mass response (MDA-MB-361; 1 µM)?
The mass response was 15.2 ± 2.1.

And the mass response (MDA-MB-361; 5 µM)?
Its mass response is 19 ± 2.9.

What about the mass response (MDA-MB-361; 50 µM) of the same compound?
Its mass response is 21.8 ± 2.8.

Which results are given for `CN(C)C(=O)c1cc2cnc(Nc3ccc(N4CCNCC4)cn3)nc2n1C1CCCC1` [Ribociclib]?
mass response (H929; 0.1 µM): 2.31 ± 0.72; mass response (H929; 1 µM): 0.00401 ± 0.89; mass response (H929; 10 µM): 1.33 ± 1.2; mass response (H929; 50 µM): 14.2 ± 3.9

Which mass response (HT-29; 0.01 µM) does the source give for `CCc1c2c(nc3ccc(O)cc13)-c1cc3c(c(=O)n1C2)COC(=O)[C@]3(O)CC` [SN-38] here?
Its mass response is 15.5 ± 0.51.

What about the mass response (HT-29; 0.1 µM) of the same compound?
The mass response was 11.1 ± 2.3.

And the mass response (HT-29; 1 µM)?
Its mass response is 10.6 ± 0.61.

And the mass response (HT-29; 10 µM)?
The mass response was 18 ± 3.

What does the source list for `Cn1ncnc1[C@H]1c2n[nH]c(=O)c3cc(F)cc(c23)N[C@@H]1c1ccc(F)cc1` [Talazoparib]?
mass response (MDA-MB-361; 0.2 µM): 8.83 ± 4.3; mass response (MDA-MB-361; 2 µM): 8.66 ± 2.9; mass response (MDA-MB-361; 20 µM): 11.8 ± 3.6; mass response (MDA-MB-361; 50 µM): 13.1 ± 6.4

`CC(=O)Nc1cccc(-n2c(=O)n(C3CC3)c(=O)c3c(Nc4ccc(I)cc4F)n(C)c(=O)c(C)c32)c1` [Trametinib] was tested. Which mass response (HT-29; 0.01 µM) did it give?
Its mass response is 26.9 ± 6.7.

And the mass response (HT-29; 0.1 µM)?
The mass response was 27.1 ± 3.4.

What about the mass response (HT-29; 1 µM) of the same compound?
Its mass response is 23.5 ± 0.46.

And the mass response (HT-29; 10 µM)?
The mass response was 24.4 ± 0.46.

Which results are given for `CCCS(=O)(=O)Nc1ccc(F)c(C(=O)c2c[nH]c3ncc(-c4ccc(Cl)cc4)cc23)c1F` [Vemurafenib]?
mass response (HT-29; 0.01 µM): -0.111 ± 1.9; mass response (HT-29; 0.1 µM): 2.67 ± 0.19; mass response (HT-29; 1 µM): 16.5 ± 2.6; mass response (HT-29; 10 µM): 24.3 ± 2.1

Which mass response (KMS-12-PE; 0.005 µM) does the source give for `CC1(C)CCC(CN2CCN(c3ccc(C(=O)NS(=O)(=O)c4ccc(NCC5CCOCC5)c([N+](=O)[O-])c4)c(Oc4cnc5[nH]ccc5c4)c3)CC2)=C(c2ccc(Cl)cc2)C1` [Venetoclax] here?
Its mass response is 0.784 ± 4.6.

And the mass response (KMS-12-PE; 0.05 µM)?
The mass response was 22.2 ± 0.87.

What about the mass response (KMS-12-PE; 0.5 µM) of the same compound?
The mass response was 35.5 ± 0.37.

What about the mass response (KMS-12-PE; 5 µM) of the same compound?
Its mass response is 39.9 ± 4.1.

What does the source list for `CCC1=C[C@@H]2CN(C1)Cc1c([nH]c3ccccc13)[C@@](C(=O)OC)(c1cc3c(cc1OC)N(C)[C@H]1[C@@](O)(C(=O)OC)[C@H](OC(C)=O)[C@]4(CC)C=CCN5CC[C@]31[C@@H]54)C2` [Vinorelbine Tartrate]?
mass response (MDA-MB-361; 0.002 µM): 0.302 ± 2.8; mass response (MDA-MB-361; 0.02 µM): 13 ± 0.57; mass response (MDA-MB-361; 0.2 µM): 14.6 ± 1.1; mass response (MDA-MB-361; 2 µM): 13.1 ± 1.9
